Data from US10155754B2, “Substituted 2-imino-1,3-thiazolidin-4-ones as N-arachidonoylethanolamine cellular uptake inhibitors” (UNIVERSITAT BERN, priority 2014, dated 2018).

How the values were obtained:
[1] = system: AEA cellular uptake (U937 cells); test: [3H]-AEA cellular uptake inhibition in U937 cells; type: cell-based; settings: Homo sapiens, U-937, U937 cells, final 100 nM AEA with 0.5 nM [3H]-AEA, 15 min at 37° C.; read-out: AEA uptake IC50
Outline: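 U937 cells (0.5×10^6 per sample) pre-incubated with compound (100 pM–100 μM, triplicates) for 15 min at 37 °C, then given 100 nM AEA including 0.5 nM [3H]-AEA for 15 min. Filtration, washing and scintillation counting of cell-associated radioactivity; IC50 by four-parameter nonlinear regression.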

FAAH = target: T1, FAAH (Homo sapiens, UniProt O00519); test: FAAH activity: hydrolysis of [3H]-AEA in U937 cell homogenates; type: biochemical; settings: [3H]-AEA hydrolysis, final 100 nM AEA, read-out: FAAH inhibition IC50
T1 construct: endogenous in cells; host or cells: U937 cell homogenate
T1 sequence (O00519 1-579): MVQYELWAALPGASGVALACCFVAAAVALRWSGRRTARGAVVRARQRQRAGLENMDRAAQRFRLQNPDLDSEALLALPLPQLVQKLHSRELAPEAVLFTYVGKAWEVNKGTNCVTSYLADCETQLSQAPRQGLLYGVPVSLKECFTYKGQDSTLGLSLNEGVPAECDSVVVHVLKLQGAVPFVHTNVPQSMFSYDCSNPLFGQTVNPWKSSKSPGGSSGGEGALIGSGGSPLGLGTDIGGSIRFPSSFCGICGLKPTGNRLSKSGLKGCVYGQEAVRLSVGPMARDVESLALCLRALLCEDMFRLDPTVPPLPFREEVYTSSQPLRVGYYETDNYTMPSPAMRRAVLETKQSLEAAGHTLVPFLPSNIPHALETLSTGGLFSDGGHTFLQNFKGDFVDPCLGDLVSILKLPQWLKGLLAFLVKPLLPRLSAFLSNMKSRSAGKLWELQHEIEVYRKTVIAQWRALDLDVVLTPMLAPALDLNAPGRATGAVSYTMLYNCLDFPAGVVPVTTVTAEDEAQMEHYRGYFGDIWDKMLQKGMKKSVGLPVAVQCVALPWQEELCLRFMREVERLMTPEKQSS
Description: Hydrolysis of [^3H]-AEA by FAAH was determined as previously described in cell homogenates of U937 cells (0.18 mg protein) (Omeir et al., 1999, Biochem Biophys Res Commun, 264, 316-20; Mor et al., 2004, J Med Chem, 47, 4998-5008). Protein amounts of cell homogenates corresponded to 0.5×10^6 cells (U937), to assure best possible comparability of IC50 values as used for the AEA cellular uptake assays. URB597 was used as positive control. Protein quantification was performed using a BCA assay (Thermo Scientific). Enzyme activity was assessed by addition of vehicle or compounds in 10 μL DMSO to 490 μL homogenate in 10 mM Tris HCl, 1 mM EDTA, 0.1% (w/v) BSA fatty acid free, pH=8 and incubation for 15 min at 37° C. After, a mixture of AEA plus [ethanolamine-1-^3H]-AEA (0.5 nM) at final 100 nM was added to the homogenates and incubated for 15 min at 37° C. The reaction was stopped by addition of 1 mL ice-cold CHCl3:MeOH (1:1) followed by vigorous vortexing. Phase separation was achieved by centrifugation at 10'000×g at 4° C. for 10 min. Radioactivity of the separated aqueous phase (upper phase) containing [^3H-ethanolamine] or [^3H-glycerol] was measured by liquid scintillation counting on a Tri-Carb 2100 TR liquid scintillation analyzer after addition of 3.5 mL Ultima Gold scintillation cocktail (PerkinElmer Life Sciences). Results are expressed as hydrolysis of tritium substrate in percent of vehicle treated control. IC50 values were calculated by GraphPad®. Data are reported as means of n=3 independent experiments performed in triplicates.

IC50 [1]: 315 nM
IC50 (FAAH): > 100 µM
SMILES: Cc1ccc(/N=C2\S/C(=C\c3ccc4[nH]ccc4c3)C(=O)N2c2ccc(C)cc2)cc1 [03_A_A, (2Z,5Z)-5-((1H-indol-5-yl)methylene)-2-(p-tolylimino)-3-p-tolylthiazolidin-4-one]
